Assays:
[1] = tested on: intracellular amastigotes of L. amaz/tc3; experiment: Fluorescence assay in the macrophage-amastigote model (Raw 264.7 infected with L. amaz/tc3); type: cell-based, Leishmania (Leishmania) amazonensis
Method: (§1) Furthermore, the efficacy of MI was also determined against intracellular amastigotes of L. amaz/tc3 and L. amaz/wt. Raw 264.7 macrophages were plated in 96-well black plate (5 x 10^4 cells/well) and in eight well Lab-Tek tissue culture slides (6.6 x 10^4 cells/ml) (Nunc, USA). The cells were infected with promastigotes in stationary phase of L. amaz/tc3 and L. amaz/wt (1:20 ratio) at 33°C, 5% CO2. After incubation, the infected macrophages were washed to remove non-internalized parasites with PBS plus P-S. New RPMI-1640 medium with different concentrations of MI (20 to 0.62 µg/ml) was added to each well and incubated at 33°C, 5% CO2 during 48 h. The anti-leishmanial activity of MI was determined by measuring the fluorescence of intracellular amastigotes of L. amaz/tc3 in a plate reader (Tecan, Männedorf, Switzerland). The viability was calculated as mentioned above, and the IC50 was also estimated. Simultaneously, the leishmanicidal activity of MI against L. amaz/wt was determined by the microscopy test. In this case, the infected macrophages were stained with Diff Quik (Biopur S.R.L., Rosario, Argentina) and the number of intracellular amastigotes was determined in 200-500 macrophages in treated and control cultures per slide under the immersion lens microscope (100x) (Leitz Wetzlar, Germany). The infection index (II) and the % infectivity (I) were calculated by the following formulas: II = IM × A, where IM= infected macrophages (%), A= number of amastigotes per infected macrophages; and I(%)=IIT/IIc×100, where IIT= infection index in treated cultures, IIC= infection index in control cultures ([Ayres et al., 2008]). The IC50 of MI was calculated.
The flavonoids anti-leishmanial activity was also evaluated against intracellular amastigotes. Macrophages (Raw 264.7) were plated in 96-well black plate (5 x 10^4 cell/well) and infected with promastigotes in stationary phase of L. amaz/tc3 (1:20 ratio) at 33°C, 5% CO2. After incubation, the infected macrophages were washed to remove non-internalized parasites with PBS plus P-S. New RPMI-1640 medium with different concentrations of GAL (30 to 3.75 µM), MO (300 to 37.5 µM), FI (65 to 8.12 µM), RU (300 to 37.5 µM) and EGCG (30 to 7.5 µM) was added to each well and incubated at 33°C, 5% CO2 for 48 h. Infected cells treated with Ma (136.6 to 34.1 µM) were the positive controls, and cells incubated only with RPMI-1640 were the negative control. The infected macrophages were incubated during 48 h at 33°C, 5% CO2. After treatment, the fluorescence of intracellular amastigotes of L. amaz/tc3 was measured in a plate reader (Tecan, Männedorf, Switzerland). The viability was determined as was described for MI (fluorescent assay). The selectivity index (SI) (CC50 for macrophages/IC50 for Leishmania) was calculated.

[2] = tested on: intracellular amastigotes of L. (L.) amazonensis; experiment: Microscopic assay, counting intracellular amastigotes in Raw 264.7 macrophages at the optic microscope; type: cell-based, Leishmania (Leishmania) amazonensis
Method: as §1
Then, to estimate the IC50 values of GAL, FI and MO; and to confirm the IC50 of RU, the activity was evaluated quantifying the intracellular amastigotes at the optic microscope. We followed the same methodology described for MI (microscopic assay) in “In Vitro, Fluorescent Assay Validation” section and the range of concentrations were for GAL (30 to 7.5 µM), FI (60 to 15 µM), RU and MO (200 to 50 µM), EGCG (142 a 17.7 µM).

[3] = Cytotoxicity in macrophage cell line by the MTT method (colorimetric); type: cell-based; details: mouse, Raw 264.7 macrophage cell line; Raw 264.7, MTT, 48 h; read-out: Colorimetric CC50 μM (SE)
Method: The cytotoxicity against a cell line of macrophages (Raw 264.7) of GAL, MO, FI, RU, EGCG, PE, MI and MA was determined by the MTT method. Cells (3.3 x 10^5/ml) cells were treated with different concentrations of each compound during 48 h at 37°C, 5% CO2. The controls were incubated with RPMI-1640 medium. Briefly, 50 µl of MTT (2 mg/mL) was added to each well and, after 4 h of incubation at 37°C, 5% CO2, the reaction was stopped dissolving the formazan crystals with 100 µl/well of dimethyl sulfoxide. The relative amount of formazan produced by viable macrophages was determined using a spectrophotometer at 595 nm. The percentage of viable cells was calculated according to the formula (OD treated culture−OD blank)/(OD control−OD blank) ×100 as was described previously ([Adinehbeigi et al., 2017]). The cytotoxicity concentration 50% (CC50) was calculated for each compound.

[4] = tested on: promastigotes of L. amaz/tc3; experiment: Transmission electron microscopy of treated promastigotes; type: cell-based, Leishmania (Leishmania) amazonensis; details: exposed to the IC50, 48 h
Method: Ultrastructural alterations in Leishmania induced by flavonoids with anti-leishmanial activity were analyzed by transmission electron microscopy (TEM). […] The control was a culture of L. amaz/tc3 incubated in complete RPMI-1640 medium. After 48 h of incubation, samples of L. amaz/tc3 promastigotes from each culture were fixed in modified Karnovsky’s solution (formaldehyde [2.66%], glutaraldehyde [1.66%]) and PBS 0.1M (pH 7,4), and incubated overnight at 4°C. The fixed samples were post-fixed with a 1/1 solution of PBS/2% osmium tetroxide (OsO4), overnight. Then the material was dehydrated and included in Spurr (Pelco, USA). Ultrathin sections were cut with an ultramicrotome (MT1, Sorvall, USA), mounted on copper grids, and contrasted with uranyl acetate (PELCO, USA) and lead citrate.

[5] = tested on: Raw 264.7 macrophages infected with L. amaz/tc3; experiment: Cytokine production (IL-12p70, IL-10) by macrophages, ELISA of culture supernatant; type: cell-based; details: 20 µM, 48 h
Method: Then, the culture supernatant was recovered and maintained at -80°C until use. The culture supernatant concentrations of IL-12p70 and IL-10 (BD Biosciences, San Diego, USA) were determined by ELISA following the specifications of the supplier. Each condition was performed in quadruplicate.

[6] = tested on: promastigotes of L. (L.) donovani; parameters: method as in Kaur et al., 2010; details: GAL isolated from Alpinia galanga rhizomes ref Kaur et al., 2010; read-out: IC50 against promastigotes of L. (L.) donovani; cited from earlier work

## O=c1c(O)c(-c2ccccc2)oc2cc(O)cc(O)c12 [GAL, Galangin]
[1]; 15 µM, 48 h
  Fluorescence Inhibition (%) of amastigotes: 29%
[1]; Leishmania, RAW264.7, 48 h, read-out: Fluorescence Inhibition (%) of amastigotes, 15 µM, 48 h
  inhibition at 15 µM: 29 to 31%
[2]; CC50 for macrophages/IC50 for Leishmania (intracellular amastigotes; Ma from fluorescence IC50)
  SI (Selectivity index): 1.1
[2]; Leishmania amazonensis, RAW264.7, Raw 264.7 macrophages, 48 h, optic microscope, read-out: Microscopic IC50 μM (SE), intracellular amastigotes
  IC50: 20.6 µM
[3]
  CC50 at 48 h: 22.8 µM
[4]
  Ultrastructural alterations in promastigotes (TEM): dramatic changes in the mitochondrial structure
[5]; between treated groups
  IL-10 concentration in culture supernatant: did not show significant differences
[5]; infected macrophages, infected non-stimulated controls 72.11 pg/ml, p < 0.01
  IL-12 p70 in culture supernatant, mean (range): 232.2 pg/mL
[6]
  IC50: 100 µM
